Laboratory results: DBAASP
Values after ≈ are worked out from the molar mass of the structure shown. Values joined by “and” are separate entries in the source; they are usually repeats but may differ in a detail not shown here. Equal values may be shown once.

Tests used:
Test in all cases: ≥ marks a high value that may be exact or a test limit, other limits are often not marked, values filed in µg/mL are converted to µM
[1] = tested on: Candida albicans ATCC 20032
[2] = tested on: Escherichia coli ATCC 25922
[3] = tested on: Staphylococcus aureus ATCC 25923
[4] = tested on: Bacillus subtilis ATCC 6633
[5] = tested on: Bacillus subtilis PS832
[6] = tested on: Escherichia coli DL7
[7] = tested on: Klebsiella aerogenes ATCC 13048
[8] = tested on: Staphylococcus epidermidis ATCC 12228
[9] = tested on: Micrococcus luteus ATCC 9341
[10] = tested on: Pseudomonas aeruginosa ATCC 15442
[11] = tested on: Bacillus subtilis CCT 2576
[12] = tested on: Staphylococcus aureus ATCC 6538
[13] = tested on: Escherichia coli JM109
[14] = tested on: Corynebacterium glutamicum ATCC 13032
[15] = tested on: Pseudomonas aeruginosa ATCC 27853
[16] = tested on: Staphylococcus aureus ATCC 9144
[17] = tested on: Escherichia coli HB101
[18] = tested on: Bacillus subtilis KCTC 1918
[19] = tested on: Staphylococcus epidermidis KCTC 1917
[20] = tested on: Saccharomyces cerevisiae KCTC 7296
[21] = tested on: Pseudomonas aeruginosa KCTC 1637
[22] = tested on: Candida albicans KCTC 7270
[23] = tested on: Salmonella typhimurium KCTC 1926
[24] = tested on: Escherichia coli KCTC 1682
[25] = tested on: Trichosporon beigelii KCTC 7707
[26] = tested on: Staphylococcus aureus KCTC 1621
[27] = tested on: Bacillus megaterium Bm11
[28] = tested on: Serratia marcescens ATCC 8100
[29] = tested on: Escherichia coli ML-35
[30] = tested on: Salmonella enterica subsp. enterica serovar Typhimurium ATCC 14028
[31] = tested on: Escherichia coli D21

With `CC[C@H](C)[C@H](N)C(=O)N[C@@H](CC(C)C)C(=O)NCC(=O)N1CCC[C@H]1C(=O)N[C@H](C(=O)N[C@H](C(=O)N[C@@H](CCCCN)C(=O)N[C@H](C(=O)N[C@H](C(=O)NCC(=O)NCC(=O)N[C@H](C(=O)N[C@H](C(=O)NCC(=O)NCC(=O)N[C@@H](CC(C)C)C(=O)N[C@@H](CC(C)C)C(=O)N[C@@H](CCCCN)C(=O)N[C@@H](CC(N)=O)C(=O)N[C@@H](CC(C)C)C(N)=O)[C@@H](C)CC)C(C)C)[C@@H](C)CC)[C@@H](C)O)[C@@H](C)CC)C(C)C` [ILGPVIKTIGGVIGGLLKNL] the MIC [1] was 9.52 µM (≈ 18.8 µg/mL), the MIC [2] was > 50.6 µM and the MIC [3] was 4.76 µM (≈ 9.4 µg/mL). The MIC [4] was 9.52 µM (≈ 18.8 µg/mL).
In the case of `CC(C)C[C@H](NC(=O)[C@H](CCCCN)NC(=O)[C@H](C)NC(=O)[C@H](CC(C)C)NC(=O)[C@H](CCCCN)NC(=O)[C@H](CCCCN)NC(=O)[C@H](C)NC(=O)[C@H](CC(C)C)NC(=O)[C@H](CCCCN)NC(=O)[C@H](C)NC(=O)[C@H](CC(C)C)NC(=O)[C@H](CCCCN)NC(=O)[C@H](Cc1cnc[nH]1)NC(=O)[C@H](C)NC(=O)[C@@H](N)CC(=O)O)C(=O)N[C@@H](C)C(=O)N[C@@H](CCCCN)C(N)=O` [DAHKLAKLAKKLAKLAK], the MIC [5] is reported as 0.25 µM and 0.5 µM, the MIC [6] is reported as 0.25 µM (≈ 0.462 µg/mL) and the MIC [7] is reported as ≥ 32 µM. It also gave an MIC [8] of 4 µM (≈ 7.39 µg/mL).
`CC[C@H](C)[C@H](N)C(=O)N[C@@H](CC(C)C)C(=O)N1CCC[C@H]1C(=O)N[C@H](C(=O)N[C@@H](CCCCN)C(=O)N[C@H](C(=O)N1CCC[C@H]1C(=O)N[C@H](C(=O)N[C@H](C(=O)N1CCC[C@H]1C(=O)N[C@H](C(=O)N[C@@H](CCCN=C(N)N)C(=O)N[C@@H](CCCN=C(N)N)C(N)=O)[C@@H](C)CC)[C@@H](C)CC)[C@@H](C)CC)[C@@H](C)CC)[C@@H](C)CC` [ILPIKIPIIPIRR] showed an MIC [9] of 25 µM (≈ 38.5 µg/mL).
`CC[C@H](C)[C@H](N)C(=O)N[C@@H](CC(C)C)C(=O)NCC(=O)N[C@H](C(=O)N[C@H](C(=O)N[C@@H](CC(C)C)C(=O)NCC(=O)N[C@@H](CC(C)C)C(=O)N[C@@H](CC(C)C)C(=O)N[C@@H](CCCCN)C(=O)NCC(=O)N[C@@H](CC(C)C)C(N)=O)[C@@H](C)CC)[C@@H](C)O` [ILGTILGLLKGL] was tested, and the MIC [2] was 10.3 µM (≈ 12.5 µg/mL), the MIC [10] was 1.4 µM (≈ 1.7 µg/mL) and the MIC [11] was 1.24 µM (≈ 1.5 µg/mL). For the same compound, the MIC [12] was 10.3 µM (≈ 12.5 µg/mL).
`CC[C@H](C)[C@H](N)C(=O)N[C@@H](CC(N)=O)C(=O)N[C@@H](Cc1c[nH]c2ccccc12)C(=O)N[C@@H](CCCCN)C(=O)N[C@@H](CCCCN)C(=O)N[C@H](C(=O)N[C@@H](C)C(=O)N[C@@H](CCC(=O)O)C(=O)N[C@H](C(=O)NCC(=O)NCC(=O)N[C@@H](CCCCN)C(=O)N[C@H](C(=O)N[C@@H](CC(C)C)C(=O)N[C@@H](CO)C(=O)N[C@@H](CO)C(=O)N[C@@H](CC(C)C)C(N)=O)[C@@H](C)CC)C(C)C)[C@@H](C)CC` [INWKKIAEVGGKILSSL] was tested, and the MIC [13] was 4.31 µM (≈ 8 µg/mL) and the MIC [4] was 1.08 µM (≈ 2 µg/mL).
With `CC[C@H](C)[C@H](NC(=O)[C@@H]1CCCN1C(=O)[C@H](CCCCN)NC(=O)[C@@H]1CCCN1C(=O)[C@H](CCCN=C(N)N)NC(=O)CNC(=O)[C@@H]1CCCN1C(=O)[C@H](Cc1ccccc1)NC(=O)[C@@H]1CCCN1C(=O)[C@H](CCCN=C(N)N)NC(=O)[C@@H]1CCCN1C(=O)[C@H](CCCN=C(N)N)NC(=O)CNC(=O)[C@@H]1CCCN1C(=O)[C@@H](N)CO)C(=O)N[C@@H](Cc1ccccc1)C(=O)N[C@@H](CCCN=C(N)N)C(=O)N1CCC[C@H]1C(=O)N[C@@H](CCCN=C(N)N)C(=O)O` [SPGRPRPFPGRPKPIFRPR] the MIC [14] was 6.3 µM (≈ 14 µg/mL), the MIC [15] was > 100 µM and the MIC [2] was > 100 µM. The MIC [16] was ≥ 100 µM and the MIC [17] was ≥ 100 µM.
`CC[C@H](C)[C@H](NC(=O)[C@H](CCCCN)NC(=O)[C@H](CO)NC(=O)[C@H](Cc1ccccc1)NC(=O)[C@H](CC(C)C)NC(=O)[C@H](CCCCN)NC(=O)[C@H](CCC(=O)O)NC(=O)[C@H](CC(C)C)NC(=O)[C@H](CCCN=C(N)N)NC(=O)[C@H](CCCCN)NC(=O)[C@H](Cc1ccccc1)NC(=O)[C@@H](NC(=O)[C@@H](N)CCCCN)C(C)C)C(N)=O` [KVFKRLEKLFSKI] was tested, and the MIC [18] was 2.21 µM (≈ 3.61 µg/mL), the MIC [19] was 6.25 µM (≈ 10.2 µg/mL) and the MIC [20] was 8.84 µM (≈ 14.5 µg/mL). For the same compound, the MIC [21] was 1.56 µM (≈ 2.55 µg/mL), the MIC [22] was 25 µM (≈ 40.9 µg/mL) and the MIC [23] was 0.78 µM (≈ 1.28 µg/mL). For the same compound, the MIC [24] was 3.12 µM (≈ 5.11 µg/mL), the MIC [25] was 1.56 µM (≈ 2.55 µg/mL) and the MIC [26] was 6.25 µM (≈ 10.2 µg/mL).
With `CC(C)C[C@H](NC(=O)[C@H](Cc1ccc(O)cc1)NC(=O)[C@@H]1CCCN1C(=O)[C@@H]1CCCN1C(=O)[C@H](CCCN=C(N)N)NC(=O)[C@@H]1CCCN1C(=O)[C@H](CC(N)=O)NC(=O)[C@H](CC(N)=O)NC(=O)[C@@H](N)CC(N)=O)C(=O)N1CCC[C@H]1C(=O)N[C@@H](CCCN=C(N)N)C(=O)N1CCC[C@H]1C(=O)N[C@@H](CCCN=C(N)N)C(=O)N1CCC[C@H]1C(=O)N1CCC[C@H]1C(=O)O` [NNNPRPPYLPRPRPP] the MIC [27] was ≥ 64 µM, the MIC [28] was ≥ 64 µM and the MIC [29] was ≥ 64 µM. The MIC [30] was > 64 µM, the MIC [31] was ≥ 64 µM and the MIC [8] was > 64 µM.
With `CC[C@H](C)[C@H](N)C(=O)N[C@@H](CC(C)C)C(=O)NCC(=O)N1CCC[C@H]1C(=O)N[C@H](C(=O)N[C@@H](CC(C)C)C(=O)NCC(=O)N[C@@H](CC(C)C)C(=O)N[C@H](C(=O)N[C@@H](CO)C(=O)N[C@@H](CC(N)=O)C(=O)N[C@H](C(=O)N[C@@H](CC(C)C)C(=O)N[C@@H](CC(=O)O)C(=O)N[C@@H](CC(=O)O)C(=O)N[C@H](C(=O)N[C@@H](CC(C)C)C(=O)NCC(=O)N[C@H](C(=O)N[C@@H](CC(C)C)C(N)=O)[C@@H](C)CC)C(C)C)[C@@H](C)O)C(C)C)C(C)C` [ILGPVLGLVSNTLDDVLGIL] the MIC [1] was ≥ 49.5 µM, the MIC [2] was > 49.5 µM and the MIC [3] was > 49.5 µM. For the same compound, the MIC [4] was ≥ 49.5 µM.
In the case of `CC(C)C[C@H](NC(=O)[C@H](CCCCN)NC(=O)[C@H](C)NC(=O)[C@H](CC(C)C)NC(=O)[C@H](CCCCN)NC(=O)[C@H](CCCCN)NC(=O)[C@H](C)NC(=O)[C@H](CC(C)C)NC(=O)[C@H](CCCCN)NC(=O)[C@H](C)NC(=O)[C@H](CC(C)C)NC(=O)[C@@H](N)CCCCN)C(=O)N[C@@H](C)C(=O)N[C@@H](CCCCN)C(N)=O` [KLAKLAKKLAKLAK], the MIC [5] is reported as 0.5 µM and 0.25 µM, the MIC [15] is reported as 6 µM (≈ 9.14 µg/mL) and the MIC [6] is reported as 1 µM (≈ 1.52 µg/mL). For the same compound, the MIC [2] was 6 µM (≈ 9.14 µg/mL), the MIC [3] was 6 µM (≈ 9.14 µg/mL) and the MIC [7] was ≥ 32 µM. The MIC [8] was 4 µM (≈ 6.09 µg/mL).
